This is an account of results in ChEMBL document CHEMBL4665688, “Discovery of AB680: A Potent and Selective Inhibitor of CD73” (J Med Chem, 2020).

The target of one data set is Cytochrome P450 2C19 (Homo sapiens, UniProt P33261). In words: Inhibition of CYP2C19 in human liver microsomes using s-mephenytoin as substrate incubated for 5 to 20 mins in presence of NADPH by LC-MS/MS analysis. It counts as ADME. As to conditions: time 5-20 min; read-out: INH; call rule not given here.
The target in a further data set is Cytochrome P450 2D6 (Homo sapiens, UniProt P10635). In words: Inhibition of CYP2D6 in human liver microsomes using dextromethorphan as substrate incubated for 5 to 20 mins in presence of NADPH by LC-MS/MS analysis. It counts as ADME. As to conditions: time 5-20 min.
Cytochrome P450 2D6, sequence (P10635 whole entry): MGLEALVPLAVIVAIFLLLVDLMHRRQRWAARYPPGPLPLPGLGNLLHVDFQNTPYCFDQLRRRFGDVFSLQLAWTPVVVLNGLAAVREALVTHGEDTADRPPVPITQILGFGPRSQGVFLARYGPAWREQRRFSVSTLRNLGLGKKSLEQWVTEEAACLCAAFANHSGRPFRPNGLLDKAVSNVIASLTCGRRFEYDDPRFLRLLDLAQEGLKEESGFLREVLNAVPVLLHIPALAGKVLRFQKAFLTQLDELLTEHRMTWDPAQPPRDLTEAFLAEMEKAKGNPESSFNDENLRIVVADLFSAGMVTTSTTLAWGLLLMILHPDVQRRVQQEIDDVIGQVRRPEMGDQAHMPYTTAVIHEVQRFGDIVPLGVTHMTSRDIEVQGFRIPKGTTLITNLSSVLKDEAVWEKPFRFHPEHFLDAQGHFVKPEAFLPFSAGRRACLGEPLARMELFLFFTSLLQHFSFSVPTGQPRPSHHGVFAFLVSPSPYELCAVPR
A further data set addresses T1, Cytochrome P450 1A2 (Homo sapiens, UniProt P05177).
T1 sequence (P05177 whole entry): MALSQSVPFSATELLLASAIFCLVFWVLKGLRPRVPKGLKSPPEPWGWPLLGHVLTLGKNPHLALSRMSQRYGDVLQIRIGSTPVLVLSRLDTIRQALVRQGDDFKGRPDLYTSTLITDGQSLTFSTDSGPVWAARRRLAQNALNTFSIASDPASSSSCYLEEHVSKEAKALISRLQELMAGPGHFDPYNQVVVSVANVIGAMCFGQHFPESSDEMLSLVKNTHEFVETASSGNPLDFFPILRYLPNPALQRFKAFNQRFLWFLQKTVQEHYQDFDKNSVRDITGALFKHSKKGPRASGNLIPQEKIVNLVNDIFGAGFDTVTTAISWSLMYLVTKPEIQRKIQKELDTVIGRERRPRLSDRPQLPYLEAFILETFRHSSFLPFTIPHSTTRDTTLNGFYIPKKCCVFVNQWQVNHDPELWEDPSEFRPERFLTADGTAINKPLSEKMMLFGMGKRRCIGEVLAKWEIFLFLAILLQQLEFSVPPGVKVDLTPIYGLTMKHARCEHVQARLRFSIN
Put plainly: Time dependent inhibition of CYP1A2 in human liver microsomes using phenacetin as substrate in presence of NADPH by LC-MS/MS analysis. Format: ADME.

Another data set addresses Cytochrome P450 2C9 (Homo sapiens, UniProt P11712). In words: Time dependent inhibition of CYP2C9 in human liver microsomes using diclofenac as substrate in presence of NADPH by LC-MS/MS analysis. It counts as ADME.
A short description of data set [1]: Genotoxicity in Salmonella typhimurium by Ames test. Format: toxicity. As to conditions: salmonella enterica subsp. enterica serovar typhimurium.
Another data set deals with T2, Cytochrome P450 2B6 (Homo sapiens, UniProt P20813).
T2 sequence (P20813 whole entry): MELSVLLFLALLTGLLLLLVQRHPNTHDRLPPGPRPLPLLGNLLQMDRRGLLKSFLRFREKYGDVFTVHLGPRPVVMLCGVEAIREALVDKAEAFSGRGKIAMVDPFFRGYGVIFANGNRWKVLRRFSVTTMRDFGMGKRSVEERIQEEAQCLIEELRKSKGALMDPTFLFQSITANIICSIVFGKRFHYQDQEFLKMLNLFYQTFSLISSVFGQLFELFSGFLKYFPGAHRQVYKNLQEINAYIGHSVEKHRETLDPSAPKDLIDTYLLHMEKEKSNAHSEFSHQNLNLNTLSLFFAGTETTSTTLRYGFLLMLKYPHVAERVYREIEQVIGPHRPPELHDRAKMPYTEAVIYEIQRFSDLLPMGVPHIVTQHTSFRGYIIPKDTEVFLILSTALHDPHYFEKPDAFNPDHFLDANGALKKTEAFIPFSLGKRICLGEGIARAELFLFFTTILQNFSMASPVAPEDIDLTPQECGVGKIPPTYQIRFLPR
In words: Induction of CYP2B6 (unknown origin) assessed as effect on CYP2B6 mRNA expression. Format: ADME.

Data set [2] in a line: Cmax in human at 16 mg, iv administered as single infusion for 30 to 60 mins. Format: ADME, organism-based. Set-up: route intravenous, dose 16 mg, time 30-60. As to conditions: in vivo.
Data set [3] in a line: Cmax in human at 25 mg, iv administered as single infusion for 30 to 60 mins. It counts as ADME, organism-based. Set-up: route intravenous, dose 25 mg, time 30-60. To be noted: in vivo.
The nature of data set [4]: Volume of distribution at steady state in human at 25 mg, iv administered as single infusion for 30 to 60 mins. As to conditions: in vivo, time 30-60 min, read-out: Vdss. Format: ADME, organism-based.
Data set [5] in a line: Toxicity in human at 0.1 to 25 mg, iv administered as single dose. As to conditions: in vivo, dose 0.1-25 mg. It counts as organism-based.

Cytochrome P450 2C19, sequence (P33261 whole entry): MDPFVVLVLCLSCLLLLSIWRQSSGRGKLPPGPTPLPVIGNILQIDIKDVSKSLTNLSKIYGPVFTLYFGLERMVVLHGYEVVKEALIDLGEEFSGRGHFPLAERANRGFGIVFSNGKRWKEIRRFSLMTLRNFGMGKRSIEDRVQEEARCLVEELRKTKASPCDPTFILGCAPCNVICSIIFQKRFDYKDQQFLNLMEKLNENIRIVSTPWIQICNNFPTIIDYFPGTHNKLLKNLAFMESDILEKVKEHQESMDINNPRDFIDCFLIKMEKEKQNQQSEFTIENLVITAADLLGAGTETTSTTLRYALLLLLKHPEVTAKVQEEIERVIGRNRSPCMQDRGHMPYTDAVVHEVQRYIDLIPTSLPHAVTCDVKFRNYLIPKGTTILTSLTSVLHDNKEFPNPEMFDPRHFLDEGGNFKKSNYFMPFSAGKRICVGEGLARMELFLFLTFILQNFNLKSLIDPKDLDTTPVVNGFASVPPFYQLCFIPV
Cytochrome P450 2C9, sequence (P11712 whole entry): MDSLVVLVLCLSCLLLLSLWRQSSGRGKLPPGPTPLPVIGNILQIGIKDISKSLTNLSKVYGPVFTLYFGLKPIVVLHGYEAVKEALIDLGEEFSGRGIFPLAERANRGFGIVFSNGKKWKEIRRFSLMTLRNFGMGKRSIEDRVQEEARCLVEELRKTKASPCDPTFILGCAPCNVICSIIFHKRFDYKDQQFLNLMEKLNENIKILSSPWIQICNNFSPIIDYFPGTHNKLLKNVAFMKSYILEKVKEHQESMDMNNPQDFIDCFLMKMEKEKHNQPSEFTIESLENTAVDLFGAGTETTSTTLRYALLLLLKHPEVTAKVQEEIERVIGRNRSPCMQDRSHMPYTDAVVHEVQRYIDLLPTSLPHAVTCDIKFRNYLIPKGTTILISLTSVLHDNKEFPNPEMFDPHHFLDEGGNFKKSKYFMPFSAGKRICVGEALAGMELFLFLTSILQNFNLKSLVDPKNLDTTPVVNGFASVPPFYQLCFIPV

Regarding `C[C@H](Nc1cc(Cl)nc2c1cnn2[C@@H]1O[C@H](COP(=O)(O)CP(=O)(O)O)[C@@H](O)[C@H]1O)c1ccccc1F`, on Cytochrome P450 2C19, the IC50 was above 100 µM. The INH on Cytochrome P450 2D6 was above 100 µM. Besides, the TDI entry at Cytochrome P450 1A2 and at Cytochrome P450 2C9 was “Not Active” throughout. Further, the Activity result in [1] is given as “Non-Toxic”; on Cytochrome P450 2B6 it was “Not Active”; in data set [5], “Non-Toxic”. The Cmax came out at 3910 ng/mL in data set [2] and 5170 ng/mL in data set [3]. Moreover, in data set [4], the Vd came out at 6.98 L.
